In patent publication US20250367209A1 (SOUTHERN RESEARCH INSTITUTE, priority 2022, published 2025):
In brackets after ≈: the same amount, converted by molar mass. Entries after “also recorded” stand apart in the source; their conditions may differ.

Experiments:
[1] = Solubility; type: physicochemical; details: for ADME Sol (μM): Table 3
[2] = Metabolic stability in mouse liver microsomes; type: in vitro ADME; details: mouse, liver microsomes
[3] = Metabolic stability in human liver microsomes; type: in vitro ADME; details: Table 3, read-out: ADME t1/2 (min): HLMt1/2
Excerpt: (§1) A computational analysis of the top five hits was then completed to assess the physical attributes of the compounds emerging from the HTS. The target profile for drug-like properties included evaluation of molecular weight (MW), total polar surface area (PSA, the surface sum of all polar atoms on the molecule), solubility, metabolic stability, and partition coefficient (LogD). In general, MW<[…] and PSA <70 Å^2 were targeted, which generally allows for blood-brain barrier (BBB) permeability. Compounds with PSA >100 A^2 are generally poor at permeating cell membranes. Solubility was targeted at >10 μM at pH 7.4 and 40-60% of compound remaining after 60 minutes of incubation in mouse or human liver microsomes (an indicator of compound stability after first-pass metabolism). LogD is the log of the ratio of concentrations of a compound in two immiscible solvents at equilibrium. Values ranging from 2-4 were targeted, typical for CNS drugs. Based on these criteria, compound no. 55 was selected as the top hit for optimization. Compound no.

[4] = Partition coefficient (LogD); type: physicochemical; details: Table 3; read-out: ADME LogD
Excerpt: as §1

[5] = target: Tau-Fyn interaction (Homo sapiens (Human), UniProt P10636); assay: Tau-Fyn PLA screening in HEK-293 cells; type: cell-based; details: for PLA: Table 3, Tau-Fyn PLA; for Tau-Fyn interaction in cells, Tau-Fyn PLA in HEK-293 cells: compound 15 μM, 24 hours
Chain of Tau-Fyn interaction (P10636 other isoform, or with tags, fused parts or gaps): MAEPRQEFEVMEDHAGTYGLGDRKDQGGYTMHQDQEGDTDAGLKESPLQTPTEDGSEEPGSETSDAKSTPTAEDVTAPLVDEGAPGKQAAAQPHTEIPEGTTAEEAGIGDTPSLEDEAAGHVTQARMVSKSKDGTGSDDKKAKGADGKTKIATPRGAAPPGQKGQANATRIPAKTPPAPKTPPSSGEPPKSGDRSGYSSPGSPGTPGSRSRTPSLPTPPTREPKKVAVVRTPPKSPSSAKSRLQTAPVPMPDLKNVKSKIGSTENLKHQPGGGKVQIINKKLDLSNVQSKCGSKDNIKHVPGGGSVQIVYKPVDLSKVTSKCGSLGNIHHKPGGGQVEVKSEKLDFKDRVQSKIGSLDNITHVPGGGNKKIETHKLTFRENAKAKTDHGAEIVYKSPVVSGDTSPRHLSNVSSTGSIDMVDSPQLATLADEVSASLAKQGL
Description: Tau-Fyn PLA screening in HEK-293 cells: For Tau-Fyn PLA in HEK-293 cells, we used the same plasmids as before (Rush, et al. (2020) Neurobiol Dis 134, 104668): human 4R2N Tau with an N-terminal mKate2 tag in a pcDNA3.1 vector and human Fyn with an N-terminal Myc tag in a pCMV-Sport6 vector grown in Stellar E. coli. HEK-293 cells were plated on coverslips coated with PDL and laminin in a 24-well plate in DMEM supplemented with 10% FBS and 1% PenStrep. Cells were transfected with 125 ng of Tau-mKate2 and Fyn plasmids with 1.5 μL Fugene in plain DMEM. After 24 hours, compound was applied at 15 μM. Twenty-four hours after application, cells were fixed. PLA protocol was the same as above except for different primary antibodies (Tau5 1:500, Fyn3 1:250). After image acquisition, PLA density was calculated as PLA puncta (as above) divided by cell area to account for differences in confluency. Cell area was defined with ImageJ as % Area after theresholding Tau-mKate2 fluorescence because it filled the cells evenly. Puncta/cell area was then normalized to vehicle-treated slides from that experiment.

[6] = Oral administration to mice, brain and plasma concentrations; type: in vivo; details: male CD1 mice; for presence in plasma and brain after oral administration: PO 5 mg/kg, 1, 2 and 4 hours; for brain/plasma ratio: PO 5 mg/kg
Description: Compounds were sent to Pharmaron to determine if they were blood-brain barrier permeable. Compounds were formulated to 1 mg/mL in 10% NMP, 60% PEG400, 30% saline, then male CD1 mice were treated PO at 5 mg/kg. Brain and plasma concentrations were measured using HPLC-MS at 1 hour, 2 hours, and 4 hours post-treatment.

[7] = system: primary rat neurons; assay: MAP2 ICC assay of Aβ-induced neurite degeneration; type: cell-based; details: compound 0.3, 3 or 15 μM, 90-minute pretreatment, 2.5 μM Aβ
Excerpt: Primary neuron cultures: All animal procedures were approved by the Institutional Animal Care and Use Committee at the University of Alabama at Birmingham (UAB). As before (Rush, et al. (2020) Neurobiol Dis 134, 104668; Voskobiynyk, et al. (2020) eLife 9, e57354), primary rat neurons were isolated from timed-pregnant Sprague-Dawley rats. Briefly, dams were euthanized with isoflurane anesthesia asphyxiation, and hippocampal tissue was isolated from E19 embryos in Hibernate E, then digested in papain for 10 minutes at 37° C. Neurons were triturated into a single cell suspension in Neurobasal supplemented with B-27, L-Glutamine, and 10% FBS, then plated in 96-well plates coated with PDL and laminin at 30,000 neurons per well in 200 uL medium or in 24-well coated plates with or without coverslips at 50,000 per well. Cultures were maintained at 37° C. with 5% CO2. Twenty-four hours after plating (DIV1), two 50% media changes with Neurobasal plus B-27 and L-Glutamine without FBS, and 5 μM cytosine β-D-arabinofuranoside was added to prevent glial proliferation. […]
For the MAP2 ICC assay, neurons were fixed in 4% PFA and 4% sucrose at 37° C. for 30 minutes, then washed 3×5 minutes in PBS. […] Intact neurite length was measured in an unbiased, automated manner using Harmony software, averaged from four images from each well. […]

[8] = Table 3, read-out: ADME t1/2 (min): MLMt1/2

With O=C(CN1CCOc2ccccc21)Nc1nnc(-c2ccccn2)[nH]1 [compound 47, 2-(2,3-DIHYDRO-4H-BENZO[B][1,4]OXAZIN-4-YL)-N-(5-(PYRIDIN-2-YL)-4H-1,2,4-TRIAZOL-3-YL)ACETAMIDE] the “ADME Sol (μM)” value [1] was “Sol = 54 μM”, the Solubility ([1]; pH 7.4, aqueous buffer, Table 2) was 80.2 µM (≈ 27 µg/mL) and the half-life ([2]; Table 2, read-out: MLM t1/2) was 2 min. For the same compound, the half-life [3] was 93 min, the logD [4] was 1.8 and the PLA [5] was “Active”.
In the case of O=C(CN1C(=O)CSc2cc(F)ccc21)Nc1nnc(-c2ccccn2)[nH]1 [compound no. 12, 2-(7-FLUORO-3-oxo-2H-BENZO[B][1,4]THIAZIN-4(3H)-YL)-N-(5-(PYRIDIN-2-YL)-4H-1,2,4-TRIAZOL-3-YL)ACETAMIDE], the “ADME Sol (μM)” value [1] is reported as “Sol = 41 μM”, the half-life ([2]; Table 2, read-out: MLM t1/2) is reported as 146 min and the half-life [2, 8] is reported as 146 min. The half-life [3] was over 300 min, the logD [4] was 2.4 and the PLA [5] was “Active”. The “Tau-Fyn interaction in cells, Tau-Fyn PLA in HEK-293 cells” value (“Tau-Fyn interaction in cells” for short) [5] was “reduced Tau-Fyn interaction in cells” and the “presence in plasma and brain after oral administration” value (“presence in plasma and brain” for short) [6] was “detected in plasma, it did not cross the BBB and was not present in brain”.
With O=C(CN1C(=O)CSc2cc(Cl)ccc21)Nc1nnc(-c2ccccn2)[nH]1 [compound no. 13, 2-(7-CHLORO-3-OXO-2H-BENZO[B][1,4]THIAZIN-4(3H)-YL)-N-(5-(PYRIDIN-2-YL)-4H-1,2,4-TRIAZOL-3-YL)ACETAMIDE] the half-life [3] was over 120 min, the logD [4] was 3.1 and the PLA [5] was “Active”. The “Tau-Fyn interaction in cells” value [5] was “reduced Tau-Fyn interaction in cells”.
With O=C(CN1C(=O)CSc2cc(F)c(F)cc21)Nc1nnc(-c2ccccn2)[nH]1 [compound no. 14, 2-(6,7-DIFLUORO-3-OXO-2H-BENZO[B][1,4]THIAZIN-4(3H)-YL)-N-(5-(PYRIDIN-2-YL)-4H-1,2,4-TRIAZOL-3-YL)ACETAMIDE] the half-life [3] was 137 min, the logD [4] was 1.9 and the PLA [5] was “Inactive”. For the same compound, the “Tau-Fyn interaction in cells” value [5] was “did not reduce Tau-Fyn interaction in cells”.
In the case of O=C(CN1CCSc2ccccc21)Nc1nnc(-c2ccccn2)[nH]1 [compound no. 20, 2-(2H-BENZO[B][1,4]THIAZIN-4(3H)-YL)-N-(5-(PYRIDIN-2-YL)-4H-1,2,4-TRIAZOL-3-YL)ACETAMIDE], the “ADME Sol (μM)” value [1] is reported as “Sol = 14 μM”, the half-life [2, 8] is reported as 9 min and the half-life [3] is reported as 85 min. For the same compound, the logD [4] was 2.3, the brain/plasma ratio [6] was 0.06 and the “presence in plasma and brain” value [6] was “detected in both plasma and brain”.
For Cc1ccc2c(c1)SCC(=O)N2CC(=O)Nc1nnc(-c2ccccn2)[nH]1 [compound no. 23, 2-(7-METHYL-3-OXO-2H-BENZO[B][1,4]THIAZIN-4(3H)-YL)-N-(5-(PYRIDIN-2-YL)-4H-1,2,4-TRIAZOL-3-YL)ACETAMIDE], the “ADME Sol (μM)” value [1] was “Sol = 57 μM”, the half-life [3] was 133 min and the logD [4] was 2.2. The PLA [5] was “Active” and the “Tau-Fyn interaction in cells” value [5] was “reduced Tau-Fyn interaction in cells”.
For O=C(CN1CCCc2ccccc21)Nc1nnc(-c2ccccn2)[nH]1 [compound no. 45, 2-(3,4-DIHYDROQUINOLIN-1(2H)-YL)-N-(5-(PYRIDIN-2-YL)-4H-1,2,4-TRIAZOL-3-YL)ACETAMIDE], the half-life [3] was 66 min, the logD [4] was 2.3 and the PLA [5] was “Active”. For the same compound, the “Tau-Fyn interaction in cells” value [5] was “reduced Tau-Fyn interaction in cells”.
With O=C(CCN1C(=O)CSc2ccccc21)Nc1nnc(-c2ccccn2)[nH]1 [compound no. 55] the “Aβ-induced neurite degeneration, MAP2 assay” value [7] was “prevented Aβ-induced neurite degeneration; also recorded: ameliorates Aβ-induced neurite degeneration” and the “Tau-Fyn interaction in cells” value [5] was “reduced Tau-Fyn interaction in cells”.
With O=C(CN1CCOc2ccccc21)Nc1nnc(-c2ccccn2)[nH]1 [compound no. 69] the “Aβ-induced neurite degeneration, MAP2 assay” value [7] was “prevented; also recorded: ameliorates Aβ-induced neurite degeneration”, the “Tau-Fyn interaction in cells” value [5] was “reduced Tau-Fyn interaction in cells” and the brain/plasma ratio [6] was 0.067. The “presence in plasma and brain” value [6] was “presence in both plasma and brain”.
